Literature values in PubChem BioAssay AID1259409 (Chemical Carcinogenesis Research Information System (CCRIS), 2018).

Test system: rodent chemically induced tumor inhibition, incidence and multiplicity
Test: CCRIS tumor inhibitor studies
Conditions: Route [Inhibitor]: ORAL, Species: RAT

## Cn1c(=O)c2c(ncn2C)n(C)c1=O
Carcinogen: 1,2-DIMETHYLHYDRAZINE, 540-73-8, Dose [Inhibitor]: 0, 600 MG/L IN DRINKING WATER FOR DURATION OF STUDY BEGINNING 7 D PRIOR TO CARCINOGEN TREATMENT (STUDY DURATION: 8 MO), Strain/Sex: BD6/MALE, Target Tissue: Type of Lesion: INTESTINE: TUMOR, Dose [Carcinogen]: 20 MG/KG BW 1/WK FOR 20 WK, Promoter: NONE USED
  tumour outcome (control, treated, inhibition, significance): 100%, 100%, 0%, not significant
Carcinogen: 2-ACETYLAMINOFLUORENE, 53-96-3, Dose [Inhibitor]: 0, 0.1% IN DRINKING WATER FOR FIRST 12 WK (STUDY DURATION: 30 WK), Strain/Sex: ACI/MALE, Target Tissue: Type of Lesion: LIVER: HEPATOCELLULAR ADENOMA, Dose [Carcinogen]: 0.02% IN DIET FOR FIRST 12 WK
  tumour outcome (control, treated, inhibition, significance): 100%, 78%, 22%, not significant
Carcinogen: 2-ACETYLAMINOFLUORENE, 53-96-3, Dose [Inhibitor]: 0, 0.1% IN DRINKING WATER FOR FIRST 12 WK (STUDY DURATION: 30 WK), Strain/Sex: ACI/MALE, Target Tissue: Type of Lesion: LIVER: HEPATOCELLULAR CARCINOMA, Dose [Carcinogen]: 0.02% IN DIET FOR FIRST 12 WK
  tumour outcome (control, treated, inhibition, significance): 44%, 22%, 50%, not significant
Carcinogen: 2-ACETYLAMINOFLUORENE, 53-96-3, Dose [Inhibitor]: 0, 0.1% IN DRINKING WATER FOR FIRST 12 WK (STUDY DURATION: 30 WK), Strain/Sex: ACI/MALE, Target Tissue: Type of Lesion: SMALL INTESTINE: ADENOCARCINOMA, Dose [Carcinogen]: 0.02% IN DIET FOR FIRST 12 WK
  tumour outcome (control, treated, inhibition, significance): 9%, 17%, -89%, not significant
Carcinogen: 2-ACETYLAMINOFLUORENE, 53-96-3, Dose [Inhibitor]: 0, 0.15% IN DRINKING WATER FOR FIRST 12 WK (STUDY DURATION: 30 WK), Strain/Sex: ACI/MALE, Target Tissue: Type of Lesion: LIVER: HEPATOCELLULAR ADENOMA, Dose [Carcinogen]: 0.02% IN DIET FOR FIRST 12 WK
  tumour outcome (control, treated, inhibition, significance): 100%, 63%, 37%, p<0.01
Carcinogen: 2-ACETYLAMINOFLUORENE, 53-96-3, Dose [Inhibitor]: 0, 0.15% IN DRINKING WATER FOR FIRST 12 WK (STUDY DURATION: 30 WK), Strain/Sex: ACI/MALE, Target Tissue: Type of Lesion: LIVER: HEPATOCELLULAR CARCINOMA, Dose [Carcinogen]: 0.02% IN DIET FOR FIRST 12 WK
  tumour outcome (control, treated, inhibition, significance): 44%, 8%, 82%, p<0.02
Carcinogen: 2-ACETYLAMINOFLUORENE, 53-96-3, Dose [Inhibitor]: 0, 0.15% IN DRINKING WATER FOR FIRST 12 WK (STUDY DURATION: 30 WK), Strain/Sex: ACI/MALE, Target Tissue: Type of Lesion: SMALL INTESTINE: ADENOCARCINOMA, Dose [Carcinogen]: 0.02% IN DIET FOR FIRST 12 WK
  tumour outcome (control, treated, inhibition, significance): 9%, 13%, -44%, not significant
Carcinogen: 2-ACETYLAMINOFLUORENE, 53-96-3, Dose [Inhibitor]: 0, 0.2% IN DRINKING WATER FOR FIRST 12 WK (STUDY DURATION: 30 WK), Strain/Sex: ACI/MALE, Target Tissue: Type of Lesion: LIVER: HEPATOCELLULAR ADENOMA, Dose [Carcinogen]: 0.02% IN DIET FOR FIRST 12 WK
  tumour outcome (control, treated, inhibition, significance): 100%, 35%, 65%, p<0.001
Carcinogen: 2-ACETYLAMINOFLUORENE, 53-96-3, Dose [Inhibitor]: 0, 0.2% IN DRINKING WATER FOR FIRST 12 WK (STUDY DURATION: 30 WK), Strain/Sex: ACI/MALE, Target Tissue: Type of Lesion: LIVER: HEPATOCELLULAR CARCINOMA, Dose [Carcinogen]: 0.02% IN DIET FOR FIRST 12 WK
  tumour outcome (control, treated, inhibition, significance): 44%, 5%, 89%, p<0.02
Carcinogen: 2-ACETYLAMINOFLUORENE, 53-96-3, Dose [Inhibitor]: 0, 0.2% IN DRINKING WATER FOR FIRST 12 WK (STUDY DURATION: 30 WK), Strain/Sex: ACI/MALE, Target Tissue: Type of Lesion: SMALL INTESTINE: ADENOCARCINOMA, Dose [Carcinogen]: 0.02% IN DIET FOR FIRST 12 WK
  tumour outcome (control, treated, inhibition, significance): 9%, 10%, -11%, not significant
Carcinogen: 2-AMINO-1-METHYL-6-PHENYL-1H-IMIDAZO[4,5-B]PYRID INE, 105650-23-5, Dose [Inhibitor]: 0, 0.1% IN DRINKING WATER FOR 52 WK (STUDY DURATION: 52 WK), Strain/Sex: F344/FEMALE, Target Tissue: Type of Lesion: MAMMARY GLAND: FIBROADENOMA, Dose [Carcinogen]: 0.02% IN THE DIET FOR 52 WK, Promoter: NONE USED
  tumour outcome (control, treated, inhibition, significance): 2/20 (10%), 0/20 (0%), 100%, not significant
Carcinogen: 2-AMINO-1-METHYL-6-PHENYL-1H-IMIDAZO[4,5-B]PYRIDINE, 105650-23-5, Dose [Inhibitor]: 0, 0.1% IN DRINKING WATER FOR 52 WK (STUDY DURATION: 52 WK), Strain/Sex: F344/FEMALE, Target Tissue: Type of Lesion: MAMMARY GLAND: ADENOCARCINOMA, Dose [Carcinogen]: 0.02% IN THE DIET FOR 52 WK, Promoter: NONE USED
  tumour outcome (control, treated, inhibition, significance): 8/20 (40%), 2/20 (10%), 75%, p< 0.05
Carcinogen: 2-AMINO-1-METHYL-6-PHENYLIMIDAZO[4,5-B]PYRIDINE [105650-23-5], Dose [Inhibitor]: 0.1% IN DRINKING WATER FOR 54 WK (STUDY DURATION: 54 WK), Strain/Sex: F344/DUCRJ/FEMALE, Target Tissue: Type of Lesion: COLON: ADENOMA OR ADENOCARCINOMA, Dose [Carcinogen]: 0.02% IN DIET FOR 54 WK (STUDY DURATION: 54 WK), Promoter: NONE
  tumour outcome (control, treated, inhibition, significance): 3/20 (15%), 15/20 (75%), -400%, p<0.01
